The record followed here is US5489613A, “Carbacyclin derivatives, process for their preparation and compositions containing them” (priority 1983, dated 1996).

What all share (type): cell-based
For test [1], the system named is platelet aggregation (platelet-rich plasma). As to the kind of experiment: Inhibition of platelet aggregation (ADP-induced), Born's turbidimetric method, rabbit blood. To be noted: Oryctolagus cuniculus, 2 min, read-out: Concentration (ng/ml) for 50% inhibition, rabbit blood. On the procedure:
(§1) Platelet aggregation was determined by the following means: 0.05 ml of a test liquid (containing, in various concentrations, the compound whose inhibitory effect was to be tested) was added to 1 ml of this platelet-rich plasma; two minutes after the addition, 0.2 ml of a liquid containing adenosine diphosphate at a concentration of 5 μM was added; the increase in light transmission at 600 nm was determined by means of a platelet aggregometer manufactured by Bryston Co. Limited.

Test [2] shares this test system. As to the kind of experiment: Inhibition of platelet aggregation (ADP-induced), Born's turbidimetric method, human blood. To be noted: 2 min, read-out: Concentration (ng/ml) for 50% inhibition, human blood. The method, then: as §1
A further test concerns blood platelets. As to the kind of experiment: Inhibition of aggregation of blood platelets (thrombocyte agglutination), stated in words.
[3] abbreviates: rabbit platelet-rich plasma, adenosine diphosphate 5 μM, 2 min after addition of test liquid, 600 nm.
Setting [4] is: human platelet-rich plasma, adenosine diphosphate 5 μM, 2 min after addition of test liquid, 600 nm.

Converted amounts (≈) assume the structure as drawn.

As for `CCCCC[C@H](O)/C=C/[C@@H]1[C@H]2C/C(=C/CCCC(=O)O)C[C@H]2C[C@H]1O` [Compound B, carbacyclin], the IC50 in test [1] (Platelet) stood at 36 ng/mL (≈ 103 nM); in test [2] (Homo sapiens, Platelet), 13.3 ng/mL (≈ 37.9 nM).

Take `O=C(O)CCCCC1=C[C@H]2C[C@@H](O)[C@H](/C=C/[C@@H](O)C3CCCCC3)[C@H]2C1` [Compound 98, 3-(4-Carboxybutyl)-6β-(3α-hydroxy-3-cyclohexylprop-1-enyl)-7α-hydroxy-cis-bicyclo[3,3,0]oct-2-ene]: the values for the IC50 in test [1] (setting [3]) and in test [2] (setting [4]) were 3.3 ng/mL (≈ 9.1 nM) and 0.9 ng/mL (≈ 2.48 nM), respectively.

Turning to `CCCCC[C@H](O)/C=C/[C@H]1[C@H](O)CC(=O)[C@@H]1CCCCCCC(=O)O` [Compound A, PGE1, reference compound], the IC50 was 36 ng/mL (≈ 102 nM) in test [1] (setting [3]) and 9.3 ng/mL (≈ 26.2 nM) in test [2] (setting [4]).

`O=C(O)CCCCC1=C[C@H]2C[C@@H](O)[C@H](/C=C/[C@@H](O)C3CCCC3)[C@H]2C1` [Compound 90, 3-(4-Carboxybutyl)-6β-(3α-hydroxy-3-cyclopentylprop-1-enyl)-7α-hydroxy-cis-bicyclo[3,3,0]oct-2-ene]: the results for the IC50 in test [1] (setting [3]) and in test [2] (setting [4]) were 3.7 ng/mL (≈ 10.6 nM) and 0.5 ng/mL (≈ 1.43 nM), respectively.

On to `CCCCC[C@H](O)/C=C/[C@@H]1[C@H]2CC(CCCCC(=O)O)=C[C@H]2C[C@H]1O` [Compound C, reference compound], for which the IC50 in test [1] (setting [3]) came to 5.9 ng/mL (≈ 16.8 nM); in test [2] (setting [4]), 3.6 ng/mL (≈ 10.3 nM). The “ability to inhibit aggregation of blood platelets” value with blood platelets was “has the ability to inhibit aggregation blood platelets”.

`CC#CCC(C)[C@H](O)/C=C/[C@@H]1[C@H]2CC(CCCCC(=O)O)=C[C@H]2C[C@H]1O` (stereo partly drawn) [Compound 85, 3-(4-Carboxybutyl)-6β-(3α-hydroxy-4-methyloct-1-en-6-ynyl)-7α-hydroxy-cis-bicyclo[3,3,0]oct-2-ene]: the IC50 turned out to be 3.6 ng/mL (≈ 9.99 nM) in test [1] (setting [3]) and 0.4 ng/mL (≈ 1.11 nM) in test [2] (setting [4]).

On to `O=C(O)CCCCC1=C[C@H]2C[C@@H](O)[C@H](/C=C/[C@@H](O)CC3CCCC3)[C@H]2C1` [Compound 100, 3-(4-Carboxybutyl)-6β-(3α-hydroxy-4-cyclopentylbut-1-enyl)-7α-hydroxy-cis-bicyclo[3,3,0]oct-2-ene], for which the IC50 in test [2] (setting [4]) was determined as 1.1 ng/mL (≈ 3.03 nM).

Regarding `C=CCCCC(C)[C@H](O)/C=C/[C@@H]1[C@H]2CC(CCCCC(=O)O)=C[C@H]2C[C@H]1O` (stereo partly drawn) [Compound 60, 3-(4-Carboxybutyl)-6β-(3α-hydroxy-4-methylnona-1,8-dienyl)-7α-hydroxy-cis-bicyclo[3,3,0]oct-2-ene], the results for the IC50 in test [1] (setting [3]) and in test [2] (setting [4]) were 1.1 ng/mL (≈ 2.92 nM) and 1.8 ng/mL (≈ 4.78 nM), respectively.
